Experimental data taken from US20260207618A1, “PYRIMIDINE CARBOXAMIDE COMPOUNDS” (Acrivon Therapeutics, Inc., priority 2022, published 2026).

Assays:
[1] = target: T1, recombinant human Wee1A kinase (Homo sapiens, UniProt P30291); experiment: LanthaScreen Europium (Eu) Kinase Binding Assay, Wee1A kinase (TR-FRET tracer displacement); conditions: 30 nM tracer 178, 5 nM Wee1A kinase, 60 minutes at room temperature
T1 construct: full length Wee1A kinase was expressed by baculovirus in insect cells; purchased Invitrogen PV3817; host or cells: insect cells (baculovirus)
T1 sequence (P30291 whole entry): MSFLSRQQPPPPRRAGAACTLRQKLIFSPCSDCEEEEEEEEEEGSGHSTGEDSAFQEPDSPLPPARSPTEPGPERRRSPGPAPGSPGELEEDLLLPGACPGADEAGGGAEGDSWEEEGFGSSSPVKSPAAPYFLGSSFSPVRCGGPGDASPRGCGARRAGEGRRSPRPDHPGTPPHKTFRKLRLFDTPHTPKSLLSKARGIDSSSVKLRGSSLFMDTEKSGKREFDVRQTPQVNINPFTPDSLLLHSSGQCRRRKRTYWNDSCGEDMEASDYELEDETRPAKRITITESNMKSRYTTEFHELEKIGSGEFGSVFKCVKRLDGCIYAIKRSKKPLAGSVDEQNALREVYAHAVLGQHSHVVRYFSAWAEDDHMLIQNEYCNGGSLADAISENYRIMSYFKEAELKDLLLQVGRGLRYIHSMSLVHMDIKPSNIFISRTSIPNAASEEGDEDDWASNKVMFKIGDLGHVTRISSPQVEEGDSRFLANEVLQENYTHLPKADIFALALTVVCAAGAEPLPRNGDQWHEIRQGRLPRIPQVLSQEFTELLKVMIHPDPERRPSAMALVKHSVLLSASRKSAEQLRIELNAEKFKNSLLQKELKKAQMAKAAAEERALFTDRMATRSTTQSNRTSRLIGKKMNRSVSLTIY

[2] = tested on: Cdk1 phosphorylated on tyrosine 15; experiment: High-content imaging of pCdk1 Y15 by immunofluorescence in ACHN cells; assay type: cell-based; conditions: Homo sapiens, high-content imaging (IF), 4 h, 7 to 5000 nM, read-out: CDK1 Tyr15 Phosphorylation EC50 (IC50)
Procedure, shortened: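 ACHN cells were treated with compounds at 7–5000 nM for 4 h, then fixed, permeabilised and immunostained for pCDK1 Y15, with DAPI as nuclear counterstain. Automated imaging gave the percentage of cells with nuclear pCDK1 Y15 positivity relative to DMSO control. EC50 values came from dose-response curves.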

[3] = tested on: ACHN cells; experiment: Cell Titer Glo viability assay in ACHN cells; assay type: cell-based; conditions: Homo sapiens, 144 h, 0.17 to 10,000 nM
Method: (§1) ACHN renal cell carcinoma cell line (ATCC) was cultured in Minimum Essential Medium Eagle supplemented with 10% fetal calf serum (Sigma), 1% Penicillin-Streptomycin and 10 mM HEPES buffer (HyClone). Cell cultures were kept in a humidified incubator at 37° C. and 5% CO2. Cells were routinely tested for Mycoplasma contamination.
ACHN cells were seeded at a density of 400 cells per well in tissue culture treated 384 well plates (Corning Costar). After overnight incubation, cells were treated with drugs at concentrations ranging from 0.17 to 10,000 nM. Viability compared to untreated control was assessed at 144 h using Cell Titer Glo assay 2.0 (Promega).

[4] = tested on: Cdk1 phosphorylated on tyrosine 15; experiment: pCDK1 Y15 AlphaLISA target engagement assay in ACHN cells; assay type: cell-based; conditions: Homo sapiens, treated for 4 h, 7 to 5000 nM, read-out: TE Weel (ALISA): AlphaLISA CDK1 Tyr15 Phosphorylation EC50
Method: as §1
For target engagement assessment, quantification of Cdk1 phosphorylated on tyrosine 15 was detected using pCDK1 Y^15 AlphaLISA assay (Perkin Elmer). ACHN cells were seeded into tissue culture treated 96-well plates (VWR) to a density of 20,000 cells per well. 24 h post seeding cells were treated for 4 h with compounds at concentrations ranging from 7 to 5000 nM. Cells were washed with PBS and lysed in 50 μl alphaLISA lysis buffer before freezing at −80° C. 10 μl of the lysate was transferred to 384 well plates and incubated with alphaLISA donor and acceptor beads according to the manufacturer's instructions. Dose response curves and EC50 values were calculated and visualized using GraphPad Prism version 9.

SMILES | IC50 [1] [nM] | EC50 [2] [nM] | EC50 [3] [nM] | EC50 [4] [nM]
COc1nc(Nc2ccc(C3CCN(C)CC3)c(C)c2)ncc1C(=O)Nc1cc(N)ccc1C [Compound 171] | 10 to 100 | – | – | > 2500
CCOc1nc(Nc2cnn(CCCN(C)C)c2)ncc1C(=O)Nc1c(Cl)cccc1Br [Compound 200, N-(2-bromo-6-chlorophenyl)-2-{1-[3-(dimethylamino)propyl]-4-pyrazolylamino}-4-ethoxy-5-pyrimidinecarboxamide] | – | 100 to 500 | 250 to 1000 | –
COc1nc(Nc2ccc3c(c2)CN(C)CC3)ncc1C(=O)Nc1c(Cl)cccc1Cl [Compound 116, N-(2,6-dichlorophenyl)-4-methoxy-2-((2-methyl-1,2,3,4-tetrahydroisoquinolin-7-yl)amino)pyrimidine-5-carboxamide] | ≤ 10 | ≤ 100 | 250 to 1000 | –
COc1nc(Nc2ccc([C@H]3CCNC3)c(C)c2)ncc1C(=O)Nc1c(Cl)cccc1Br (single isomer, unassigned) [Compound 194] | ≤ 10 | 100 to 500 | 250 to 1000 | –
COc1nc(Nc2ccc(O[C@@H]3CCNC3)c(C)c2)ncc1C(=O)Nc1c(Cl)cccc1Br [Compound 210] | – | 100 to 500 | 250 to 1000 | –
COc1nc(Nc2ccc(OCCCN(C)C)c(C)c2)ncc1C(=O)Nc1c(Cl)ccc(O)c1C [Compound 158, N-(6-chloro-3-hydroxy-2-methylphenyl)-2-((4-(3-(dimethylamino)propoxy)-3-methylphenyl)amino)-4-methoxypyrimidine-5-carboxamide] | ≤ 10 | 100 to 500 | 250 to 1000 | –
COc1nc(Nc2ccc(C3(C#N)CCN(C)CC3)c(C)c2)ncc1C(=O)Nc1c(Cl)cccc1Cl [Compound 181] | ≤ 10 | – | – | ≤ 500
COc1nc(Nc2ccc3c(cnn3CCN(C)C)c2)ncc1C(=O)Nc1c(Cl)cccc1Cl [Compound 174] | ≤ 10 | – | – | > 2500
COc1nc(Nc2ccc(OC3CCNCC3)c(C)c2)ncc1C(=O)Nc1c(Cl)cccc1Cl [Compound 180] | ≤ 10 | 100 to 500 | 250 to 1000 | 500 to 1000
COc1nc(Nc2ccc(O[C@H]3CCN(C)C3)c(C)c2)ncc1C(=O)Nc1c(Cl)cccc1Cl [Compound 154, (S)—N-(2,6-dichlorophenyl)-4-methoxy-2-((3-methyl-4-((1-methylpyrrolidin-3-yl)oxy)phenyl)amino)pyrimidine-5-carboxamide] | ≤ 10 | 100 to 500 | – | > 2500
COc1nc(Nc2ccc(C3CCN(C)CC3)c(C)c2)ncc1C(=O)Nc1c(Cl)cccc1Br [Compound 110, N-(2-bromo-6-chlorophenyl)-4-methoxy-2-((3-methyl-4-(1-methylpiperidin-4-yl)phenyl)amino)pyrimidine-5-carboxamide] | ≤ 10 | ≤ 100 | ≤ 250 | –
COc1nc(Nc2ccc3c(cnn3C)c2)ncc1C(=O)Nc1c(Cl)cccc1Cl [Compound 176] | 10 to 100 | – | – | > 2500
COc1nc(Nc2cnn(C3CCN(C)CC3)c2)ncc1C(=O)Nc1c(Cl)cccc1Cl [Compound 163] | ≤ 10 | 100 to 500 | 250 to 1000 | > 2500
COc1nc(Nc2ccc(O[C@H]3CCNC3)c(C)c2)ncc1C(=O)Nc1c(Cl)cccc1Cl [Compound 177] | ≤ 10 | – | – | > 2500
COc1nc(Nc2ccc(C3CCN(C)CC3)c(C#N)c2)ncc1C(=O)Nc1c(Cl)cccc1Cl [Compound 156, 2-((3-cyano-4-(1-methylpiperidin-4-yl)phenyl)amino)-N-(2,6-dichlorophenyl)-4-methoxypyrimidine-5-carboxamide] | ≤ 10 | – | – | 500 to 1000
COc1nc(Nc2ccc3c(c2)CN(C)CC3(C)C)ncc1C(=O)Nc1c(Cl)cccc1Cl [Compound 135, N-(2,6-dichlorophenyl)-4-methoxy-2-((2,4,4-trimethyl-1,2,3,4-tetrahydroisoquinolin-7-yl)amino)pyrimidine-5-carboxamide] | ≤ 10 | ≤ 100 | 250 to 1000 | –
COc1nc(Nc2ccc3c(cnn3C3CCN(C)C3)c2)ncc1C(=O)Nc1c(Cl)cccc1Cl (stereo not shown) [Compound 173] | 10 to 100 | – | – | > 2500
COc1nc(Nc2ccc(C3CCN(C)CC3)c(C)c2)ncc1C(=O)Nc1c(Cl)cccc1Cl [Compound 100, N-(2,6-dichlorophenyl)-4-methoxy-2-((3-methyl-4-(1-methylpiperidin-4-yl)phenyl)amino)pyrimidine-5-carboxamide] | ≤ 10 | ≤ 100 | 250 to 1000 | –
COc1nc(Nc2ccc([C@@H]3CCNC3)c(C)c2)ncc1C(=O)Nc1c(Cl)cccc1Br (single isomer, unassigned) [Compound 195] | ≤ 10 | 100 to 500 | 250 to 1000 | –

Continued, values first:

IC50 [1] [nM] | EC50 [2] [nM] | EC50 [3] [nM] | EC50 [4] [nM] | SMILES
≤ 10 | ≤ 100 | ≤ 250 | – | COc1nc(Nc2ccc(C3CCN(C)CC3)c(C)c2)ncc1C(=O)Nc1c(Cl)ccc(O)c1C [Compound 141, N-(6-chloro-3-hydroxy-2-methylphenyl)-4-methoxy-2-((3-methyl-4-(1-methylpiperidin-4-yl)phenyl)amino)pyrimidine-5-carboxamide]
≤ 10 | – | – | ≤ 500 | COc1nc(Nc2ccc(O[C@H]3CCN(C)C3)c(C)c2)ncc1C(=O)Nc1c(Cl)ccc(O)c1C [Compound 155, (S)—N-(6-chloro-3-hydroxy-2-methylphenyl)-4-methoxy-2-((3-methyl-4-((1-methylpyrrolidin-3-yl)oxy)phenyl)amino)pyrimidine-5-carboxamide]
≤ 10 | 100 to 500 | ≤ 250 | – | COc1nc(Nc2ccc([C@@H]3CCCN(C)C3)c(C)c2)ncc1C(=O)Nc1c(Cl)cccc1Br (single isomer, unassigned) [Compound 197]
≤ 10 | 100 to 500 | ≤ 250 | – | COc1nc(Nc2ccc(N3CCCNCC3)c(C)c2)ncc1C(=O)Nc1c(Cl)cccc1Br [Compound 205]
≤ 10 | ≤ 100 | ≤ 250 | – | COc1nc(Nc2ccc(C3CCN(C)CC3)c(C)c2)ncc1C(=O)Nc1c(Cl)ccc(O)c1Cl [Compound 133, N-(2,6-dichloro-3-hydroxyphenyl)-4-methoxy-2-((3-methyl-4-(1-methylpiperidin-4-yl)phenyl)amino)pyrimidine-5-carboxamide]
≤ 10 | 100 to 500 | ≤ 250 | – | Cc1cc(Nc2ncc(C(=O)Nc3c(Cl)cccc3Cl)c(OC3CC3)n2)ccc1C1CCN(C)CC1 [Compound 140, 4-cyclopropoxy-N-(2,6-dichlorophenyl)-2-((3-methyl-4-(1-methylpiperidin-4-yl)phenyl)amino)pyrimidine-5-carboxamide]
≤ 10 | 100 to 500 | ≤ 250 | – | COc1nc(Nc2ccc(N3CCC(N(C)C)CC3)c(C)c2)ncc1C(=O)Nc1c(Cl)cccc1Br [Compound 213]
≤ 10 | ≤ 100 | ≤ 250 | ≤ 500 | COc1nc(Nc2ccc(C3CCNCC3)c(C)c2)ncc1C(=O)Nc1c(Cl)cccc1Cl [Compound 175]
≤ 10 | ≤ 100 | 250 to 1000 | – | C#Cc1cccc(Cl)c1NC(=O)c1cnc(Nc2ccc(C3CCN(C)CC3)c(C)c2)nc1OC [Compound 129, N-(2-chloro-6-ethynylphenyl)-4-methoxy-2-((3-methyl-4-(1-methylpiperidin-4-yl)phenyl)amino)pyrimidine-5-carboxamide]
≤ 10 | 100 to 500 | 250 to 1000 | – | COc1nc(Nc2ccc(C3CCN(C)CC3)c(C)c2)ncc1C(=O)Nc1c(Cl)cccc1C(F)(F)F [Compound 122, N-(2-chloro-6-(trifluoromethyl)phenyl)-4-methoxy-2-((3-methyl-4-(1-methylpiperidin-4-yl)phenyl)amino)pyrimidine-5-carboxamide]
≤ 10 | 100 to 500 | 250 to 1000 | > 2500 | COc1nc(Nc2ccc(OC3CCNCC3)cc2)ncc1C(=O)Nc1c(Cl)cccc1Cl [Compound 179]
≤ 10 | 100 to 500 | ≤ 250 | – | COc1nc(Nc2cnn(C3CCN(C)CC3)c2)ncc1C(=O)Nc1c(Br)cccc1Br [Compound 212, N-2,6-dibromophenyl-4-methoxy-2-[1-(1-methyl-4-piperidyl)-4-pyrazolylamino]-5-pyrimidinecarboxamide]
≤ 10 | 100 to 500 | 250 to 1000 | 500 to 1000 | COc1nc(Nc2ccc(C3CCN(C)CC3)c(C)c2)ncc1C(=O)Nc1c(C)ccc2[nH]ncc12 [Compound 172]
